Experimental data as given in US20100173332A1, “Method for the Fluorescent Detection of Nitroreductase Activity Using Nitro-Substituted Aromatic Compounds” (Auckland Uniservices Limited, priority 2006, published 2010).
Entries after “also recorded” stand apart in the source; their conditions may differ. Structures can show the parent of a compound that is named as a salt.

Columns and labels:
[1] = Aerobic/anaerobic stability in cell-free culture media (fluorescence); assay type: physicochemical; conditions: 100 μM, 37° C., 4 hr, air or 95% N2
Description: Compounds 1-15 or methyl 7-nitrocoumarin carboxylate (methyl 7-nitro-2-oxo-2H-chromene-3-carboxylate) or 7-nitrocoumarin-3-carboylic acid or 6-chloro-9-nitro-5H-benzo[a]phenoxazin-5-one were added to a final concentration of 100 μM in cell-free culture media and were held at 37° C., 5% CO2 for 4 hr under either air or 95% N2. The fluorescence signal was monitored at 355/460 except for compounds 4 and 11 that were monitored at 405/585 and compounds 8, 10 and 6-Cl-9-nitro-5-oxo-5H-benzo[a]phenoxazine that were monitored at 355/585, 355/535 and 530/585 respectively (FIG. 12).

[2] = Aqueous stability in minimal essential media in the absence of cells (background fluorescence); assay type: physicochemical; conditions: for increase in background florescence in culture media: 300 μM, minimal essential media, 37° C., 5% CO2, 355/460, over 7.8 hours; for aqueous stability compared with methyl-7-nitrocoumarin carboxylate and 7-nitrocoumarin-3-carboxylic acid: FIG. 11
Description: In a further experiment, the aqueous stability of compounds 1 and 2 were compared with the compounds methyl-7-nitrocoumarin carboxylate and 7-nitrocoumarin-3-carboxylic acid in the absence of cell culture. Minimal essential media was equilibrated to 37° C., 5% CO2 for 2 hr and compounds were added to a final concentration of 300 μM. […]

[3] = biological target: T1, E. coli nitroreductase (nfsB) (Escherichia coli, UniProt P38489); assay: Entrapment of fluorescent products within nitroreductase expressing HCT116 cells; assay type: cell-based; conditions: washed; for cellular retention of fluorescence in nitroreductase expressing but not parental HCT116 cells: 10 μM for 1.5 hr, 6 hours post-exposure
T1 construct: expressed in transfected cells; host or cells: MDA231 (MDA-231) human breast cancer cell line, clonal derivative MDA231 NTR
Description: The human colorectal cancer cell line (HCT116^WT) and a clonal derivative (HCT116^NTR) engineered to express the reporter gene E. coli nitroreductase (nfsB) under the control of a constitutive promoter were seeded onto glass coverslips at an equal density (50:50). Cells were equilibrated to 37° C., 5% CO2, and compound 1 and 13 was added to a final concentration of 100 μM for 1 hr. Cells were washed free of compound after 1 hour and fluorescence was monitored as a function of time (FIG. 8).
In further screening (FIG. 9), the human colorectal cancer cell line (HCT116^WT) and a clonal derivative (HCT116^NTR) engineered to express the reporter gene E. coli nitroreductase (nfsB) under the control of a constitutive promoter were seeded separately into a 96-well glass plate. Cells were equilibrated to 37° C., 5% CO2, and compounds were added to a final concentration of 10 μM for 1.5 hr. Cells were washed free of compound and fluorescence was monitored 6 hours post-exposure. […] The image has been rendered monochromatic for the purposes of publication quality.

[4] = biological target: T2, NAD(P)H dehydrogenase quinone 1 (DT-diaphorase; NQO1) (Homo sapiens, UniProt P15559); assay: Detecting human aerobic nitroreductase activity in MDA231 DTD cells; assay type: cell-based; conditions: for fluorescent signal in the presence of human NQO1 expression: MDA231 DTD cells, 100 μM, 4 hr (FIG. 5)
T2 construct: expressed in transfected cells; host or cells: MDA231 human breast cancer cell line, clonal derivative MDA231 DTD
Description: The human breast cancer cell line (MDA231^WT) and a clonal derivative (MDA231^DTD) engineered to express the human aerobic reductase, NAD(P)H dehydrogenase quinone 1 (DT-diaphorase; NQO1) under the control of a constitutive promoter were seeded into 96-well plates at a density of 1×10^5 cells/well. When samples were equilibrated to 37° C., 5% CO2 for 2 hr and compounds 1 to 15 were added to a final concentration of 100 μM for 4 hr. Test groups were cell-free culture media alone (control), MDA231^WT and MDA231^DTD. The fluorescence signal was monitored at 355/460 except for compounds 4 and 11 that were monitored at 405/585 and compounds 8 and 10 that were monitored at 355/585 and 355/535 respectively (FIG. 5).
In a further exemplification, the human breast cancer cell line (MDA231^WT) and a clonal derivative (MDA231^DTD) engineered to express the human NQO1 gene (DT-diaphorase) under the control of a constitutive promoter were seeded into 96-well tissue culture plates at 1×10^5 cells/well. Samples were equilibrated to 37° C., 5% CO2, compound (1) (6-nitro-4(1H)-quinolinone) was added to a final concentration of 300 μM. Test groups were culture media alone (control), MDA231^WT cells and MDA231^DTD cells. The rate of fluorescence signal generation at 355/460 was monitored as a function of time (FIG. 6).

[5] = biological target: T3, Escherichia coli nfsB (NfsB) (Escherichia coli, UniProt P38489); assay: Multiplexed reporter detection with compounds 4 and 16 in MDA-231 cells expressing nfsB; assay type: cell-based; conditions: nfsB and CYPOR cells mixed 1:1, 10 μM, 45 minutes, microscopy
T3 construct: expressed in transfected cells; host or cells: MDA231 (MDA-231) human breast cancer cell line, clonal derivative MDA231 NTR
Description: Compounds 4 and 16 (as representative nitro-substituted aromatic compounds of the present invention) were utilized to exemplify the ability to detect individual cell populations. […] 30,000 cells were seeded into a plastic 96-well plate in a volume of 0.1 mL. After 2 h attachment samples were incubated with either 200 μM 16 or 100 μM 4 by dilution of DMSO stock solutions into culture medium and addition of 0.1 mL directly into wells. Plates were incubated for 4 h before being read on a fluorescent platereader at Ex/Em 355/460 and 485/535. Values represent the fluorescence in the presence of cells—blank (fluorescence in the absence of cells). When the data were collated it was evident that the fluorescent output of each cell population could be identified with minimal interference from the other reductases-generated fluorescent molecules. […] To establish the single cell specificity of compounds 4 and 16 for detection of activities in a mixed (co-cultured) cell population, cells were examined by fluorescent microscopy following concurrent exposure to compounds 4 and 16. […] Samples were incubated at 37° C. for 45 minutes, washed three times in PBS and images were acquired on a Nikon TE-2000 inverted fluorescence microscope. […]

[6] = biological target: T1, E. coli nitroreductase (nfsB); assay: Nitroreductase specificity: fluorescence in MDA231 NTR versus MDA231 WT cells; assay type: cell-based; conditions: for differential fluorescent signal MDA231 NTR versus MDA231 WT: 95% N2, 355/460, at 7.5 hours
Description: The human breast cancer cell line (MDA231^WT) and a clonal derivative (MDA231^NTR) engineered to overexpress the E. coli nitroreductase (nfsB) under the control of a constitutive promoter were seeded into 96-well plates at a density of 2×10^4 cells/well. When samples were equilibrated to 37° C., 95% N2, 5% CO2 for 2 hr and compound 2 or methyl 7-nitrocoumarin carboxylate (methyl 7-nitro-2-oxo-2H-chromene-3-carboxylate) were added to a final concentration of 300 μM. The fluorescence signal was monitored at 355/460 over a 7.5 hour time frame (FIG. 10).

[7] = biological target: T1, E. coli nitroreductase (nfsB); assay: Rate of fluorescence signal generation in stirred HCT116 NTR cell suspension; assay type: cell-based; conditions: 300 μM, 355/460
Description: In a further exemplification, the human colorectal cancer cell line (HCT116^WT) and a clonal derivative (HCT116^NTR) engineered to express the reporter gene E. coli nitroreductase (nfsB) under the control of a constitutive promoter were suspended in stirred culture media at a density of 5×10^6 cells/ml. When samples were equilibrated to 37° C., 5% CO2, compound (2) (1-methyl-6-nitro-4(1H)-quinolinone) was added to a final concentration of 300 μM. Test groups were culture media alone (control), HCT116^WT and HCT116^NTR. The rate of fluorescence signal generation at 355/460 was monitored as a function of time (FIG. 4).

[8] = 300 μM, 95% N2, 355/460, 7.5 hour time frame

T2 sequence (P15559 whole entry): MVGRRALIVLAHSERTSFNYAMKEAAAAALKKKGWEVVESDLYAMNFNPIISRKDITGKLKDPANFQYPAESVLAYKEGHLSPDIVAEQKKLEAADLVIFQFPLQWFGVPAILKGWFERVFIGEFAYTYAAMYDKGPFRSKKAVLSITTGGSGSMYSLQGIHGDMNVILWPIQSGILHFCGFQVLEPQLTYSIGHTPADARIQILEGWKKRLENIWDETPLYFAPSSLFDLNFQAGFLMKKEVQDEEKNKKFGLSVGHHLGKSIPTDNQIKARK
T1 sequence (P38489 whole entry): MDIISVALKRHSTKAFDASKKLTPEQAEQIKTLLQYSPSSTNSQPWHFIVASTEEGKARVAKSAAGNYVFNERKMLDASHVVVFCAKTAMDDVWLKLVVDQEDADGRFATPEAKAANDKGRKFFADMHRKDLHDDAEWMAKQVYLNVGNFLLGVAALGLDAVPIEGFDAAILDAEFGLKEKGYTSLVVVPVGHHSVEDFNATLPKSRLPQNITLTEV
T3 sequence (P38489 whole entry): as above

Q: Which results are given for `O=C(O)c1cc2ccc([N+](=O)[O-])cc2oc1=O` [7-nitrocoumarin-3-carboxylic acid, reference compound]?
A: fluorescence in cell-free culture media (instability) [1]: measurable fluorescence; increase in background florescence in culture media [2]: 5.3 fold

Q: Which melting point does the source give for `Cn1ccc(=O)c2cc(N)ccc21` [Compound 17, 6-Amino-1-methyl-4(1H)-quinolinone] here?
A: 212 to 214 °C

Q: With `COC(=O)CCCNS(=O)(=O)c1ccc2cccc(N)c2c1` [Compound 22, Methyl 4-{[(8-amino-2-naphthyl)sulfonyl]amino}butanoate] as the compound, how does the melting point read?
A: 162 to 167 °C

Q: With `CN(C)CCCCN1C(=O)c2cccc3cc(N)cc(c23)C1=O` [Compound 19, 5-Amino-2-[4-(dimethylamino)butyl]-1H-benzo[de]isoquinoline-1,3(2H)-dione] as the compound, how does the melting point read?
A: 99 to 101 °C

Q: For `CN(C)CCCOc1ccnc2cc([N+](=O)[O-])ccc12` (as salt: trifluoroacetate) [Compound 14, N,N-dimethyl-3-[(7-nitro-4-quinolinyl)oxy]-1-propanamine], which melting point is on record?
A: 146 to 149 °C

Q: For `COC(=O)CCCNS(=O)(=O)c1cccc2c([N+](=O)[O-])cccc12` [Compound 8, methyl 4-{[(5-nitro-1-naphthyl)sulfonyl]amino}butanoate], which melting point is on record?
A: 94 to 96 °C

Q: With `O=c1cc[nH]c2ccc([N+](=O)[O-])cc12` [Compound 1, 6-Nitro-4(1H)-quinolinone] as the compound, how does the “retention of fluorescence in cells after wash” value ([3]; HCT116 WT:HCT116 NTR 50:50 co-culture, 100 μM for 1 hr, by 4 hours) read?
A: no longer fluorescent

Q: And the “fluorescence in wells with compound alone (control) or parental MDA231 WT” value ([4]; 300 μM, 355/460)?
A: No detectable fluorescence

Q: What about the “fluorescent signal generation by MDA231 DTD cells as a function of time” value ([4]; 300 μM, 355/460 (FIG. 6)) of the same compound?
A: generate a fluorescent signal

Q: What about the “fluorescent signal in the presence of human NQO1 expression” value [4] of the same compound?
A: gave rise to a fluorescent signal

Q: What about the “increase in background florescence in culture media” value [2] of the same compound?
A: 1.4 fold

Q: And the “aqueous stability compared with methyl-7-nitrocoumarin carboxylate and 7-nitrocoumarin-3-carboxylic acid” value [2]?
A: superior aqueous stability

Q: Which “fluorescence in cell-free culture media (instability)” value [1] does the source give for `O=c1c(Cl)c2oc3cc([N+](=O)[O-])ccc3nc-2c2ccccc12` [6-chloro-9-nitro-5H-benzo[a]phenoxazin-5-one] here?
A: measurable fluorescence; also recorded: lacks stability in culture medium under conditions of low oxygen

Q: Which “cellular retention of fluorescence in nitroreductase expressing but not parental HCT116 cells” value [3] does the source give for `CN(C)CCCNc1ccnc2cc([N+](=O)[O-])ccc12` [Compound 15, N^1,N^1-Dimethyl-N^3-(7-nitro-4-quinolinyl)-1,3-propanediamine] here?
A: possessing cellular retention properties

Q: What does the source list for `CN(C)CCCOc1ccnc2cc([N+](=O)[O-])ccc12` [Compound 14, N,N-dimethyl-3-[(7-nitro-4-quinolinyl)oxy]-1-propanamine]?
A: cellular retention of fluorescence in nitroreductase expressing but not parental HCT116 cells [3]: possessing cellular retention properties; fluorescent emission colour on co-registration image (FITC filter set) [5]: green

Q: For `CN(C)CCNC(=O)c1cc(N)cc2c(=O)c3ccccc3[nH]c12` [Compound 18, 2-Amino-N-[2-(dimethylamino)ethyl]-9-oxo-9,10-dihydro-4-acridinecarboxamide], which melting point is on record?
A: 198 to 202 °C

Q: What does the source list for `Cn1ccc(=O)c2cc([N+](=O)[O-])ccc21` [Compound 2, 1-Methyl-6-nitro-4(1H)-quinolinone]?
A: increase in background florescence in culture media [2]: 1.4 fold; aqueous stability compared with methyl-7-nitrocoumarin carboxylate and 7-nitrocoumarin-3-carboxylic acid [2]: superior aqueous stability; fluorescence in control cell line MDA231 WT [6, 8]: no detectable fluorescence; fluorescence in nitroreductase-expressing cell line MDA231 NTR [6, 8]: robust fluorescent signal; differential fluorescent signal MDA231 NTR versus MDA231 WT ([6]; 300 μM): 480 fold; performance as nitroreductase fluorescent reporter relative to methyl 7-nitrocoumarin carboxylate ([6]; FIG. 10): superiority; time by which reduction by HCT116 NTR cells approached completion ([7]; 5×10^6 cells/ml): ≤ 9 h; fluorescence in control or parental HCT116 WT cultures [7]: No detectable fluorescence

Q: With `COC(=O)c1cc2ccc([N+](=O)[O-])cc2oc1=O` [methyl 7-nitrocoumarin carboxylate, methyl 7-nitro-2-oxo-2H-chromene-3-carboxylate, reference compound] as the compound, how does the “fluorescence in cell-free culture media (instability)” value [1] read?
A: measurable fluorescence

Q: What about the “increase in background florescence in culture media” value [2] of the same compound?
A: 4.2 fold

Q: What about the “fluorescence in control cell line MDA231 WT” value [6, 8] of the same compound?
A: measurable fluorescence

Q: And the “differential fluorescent signal MDA231 NTR versus MDA231 WT” value ([6]; 300 μM)?
A: 1.6 fold

Q: Which “fluorescent signal in the presence of human NQO1 expression” value [4] does the source give for `Cc1cc(=O)c2cc([N+](=O)[O-])ccc2[nH]1` [Compound 3, 2-Methyl-6-nitro-4(1H)-quinolinone] here?
A: gave rise to a fluorescent signal; also recorded: generate a fluorescent signal
